{"source": "patent US12594267B2", "about": "“Capsid inhibitors for the treatment of HIV” (Gilead Sciences, Inc., priority 2018, dated 2026)", "experiment": "PK after subcutaneous administration of solutions in dogs", "format": "in vivo, Beagle dog", "settings": "male, beagle, dog, plasma, sc, 12 mg/kg; for concentration at 336 h / concentration at 504 h / concentration at 672 h / concentration at 840 h / concentration at 1008 h / concentration at 1344 h / concentration at 1680 h / concentration at 1 h / concentration at 3 h / concentration at 8 h / concentration at 24 h / concentration at 48 h / concentration at 72 h / concentration at 96 h / concentration at 168 h: SC 12 mg/kg, 400 mg/mL in 15% water/85% PEG 300; for AUC(0-t): male beagle dog, single SC 12 mg/kg, 400 mg/mL in 85% PEG300 and 15% water, mean ± SD", "procedure": "Formulations containing the compound of Formula (Ia) were prepared as aqueous solutions or oral formulations and administered subcutaneously to rats, dogs, cynomolgus monkey, and/or rhesus monkey.\nA solution of the compound of Formula (Ia) in 10% ethanol, 13% water, and 77% PEG 200 (400 mg/mL) was prepared. The solution was administered subcutaneously to dogs at a dose of 12 mg/kg and rats at a dose of 50 mg/kg and the pharmacokinetic (PK) profile was determined. […] In both species, plasma concentrations of the compound of Formula (Ia) were maintained above the target trough concentration of 20 nM (corresponding to an IQ of 5) for at least 84 days (12 weeks).\nA solution of the compound of Formula (Ia) in 15% water and 85.0 PEG 300 (400 mg/mL) was prepared. The solution was administered subcutaneously to male beagle dogs at a dose level of 12 mg/kg and dose volume of […] and the pharmacokinetic (PK) profile was determined.\nA solution of the compound of Formula (a) sodium salt in water and 300 (300 mg/mL) was prepared that contained 22.6% water/50% PEG 300/1.1% NaOH/26.3% Formula (Ia). The solution was administered subcutaneously to male beagle dogs at a dose level of 12 mg/kg and dose volume of […] and the pharmacokinetic (PK) profile was determined.\nA 300 mg/ml solution of a compound of Formula (Ia) having 9.8 w/w % water, 65.0 w/w % PEG 300, and 25.2 w/w % of the compound of Formula (Ia) was prepared. The solution was administered subcutaneously to rats at a dose of 50 mg/kg and to dogs at a dose of 12 mg/kg and the pharmacokinetic (PK) profile was determined. […] In the rat, plasma concentrations of the compound of Formula (Ia) were maintained above the target trough concentration of 20 nM for at least 168 days (24 weeks). In the dog, plasma concentrations of the compound of Formula (Ia) were maintained above the target trough concentration of 20 nM for at least 84 days (12 weeks).\n(§1) A 150 mg/ml solution of a compound of Formula (Ia) having 27.92 w/w % water, 58.04 w/w % PEG 300, 13.47 w/w % of a compound of Formula (Ia), and 1.1 w/w % NaOH was prepared. The solution was administered subcutaneously to rats at a dose of 50 mg/kg and to dogs at a dose of 12 mg/kg and the pharmacokinetic (PK) profile was determined. […] In the rat, plasma concentrations of the compound of Formula (Ia) were maintained above the target trough concentration of 20 nM for at least 126 days (18 weeks). In the dog, plasma concentrations of the compound of Formula (Ia) were maintained above the target trough concentration of 20 nM for at least 56 days (8 weeks).\nas §1, with “300” for “150”, “23.2” for “27.92”, “50.0” for “58.04”, “25.7” for “13.47”\nA 50 mg/ml solution of a compound of Formula (Ia) having 30.07 w/w % water, 64.40 w/w % PEG 300, 4.68 w/w % of a sodium salt of the compound of Formula (Ia), and 0.85 w/w % poloxamer 188 was prepared. The solution was administered subcutaneously to rats at a dose of 50 mg/kg and to dogs at a dose of 6 mg/kg and the pharmacokinetic (PK) profile was determined. […] In the rat, plasma concentrations of the compound of Formula (Ia) were maintained above the target trough concentration of 20 nM for at least 28 days (4 weeks). In the dog, plasma concentrations of the compound of Formula (Ia) were maintained above the target trough concentration of 20 nM for at least 14 days (2 weeks). […]", "note": "Like-named read-outs stand apart in the source and are kept apart here.", "data": [{"smiles": "CC(C)(C#Cc1ccc(-c2ccc(Cl)c3c(NS(C)(=O)=O)nn(CC(F)(F)F)c23)c([C@H](Cc2cc(F)cc(F)c2)NC(=O)Cn2nc(C(F)(F)F)c3c2C(F)(F)[C@@H]2C[C@H]32)n1)S(C)(=O)=O", "note": "[Formula (Ia), N—((S)-1-(3-(4-chloro-3-(methylsulfonamido)-1-(2,2,2-trifluoroethyl)-1H-indazol-7-yl)-6-(3-methyl-3-(methylsulfonyl)but-1-yn-1-yl)pyridin-2-yl)-2-(3,5-difluorophenyl)ethyl)-2-((3bS,4aR)-5,5-difluoro-3-(trifluoromethyl)-3b,4,4a,5-tetrahydro-1H-cyclopropa[3,4]cyclopenta[1,2-c]pyrazol-1-yl)acetamide]", "values": [{"measurement": "concentration at 336 h", "setting": "dog #1", "value": 135, "unit": "nM"}, {"measurement": "concentration at 504 h", "setting": "dog #1", "value": 172, "unit": "nM"}, {"measurement": "concentration at 672 h", "setting": "dog #1", "value": 93.1, "unit": "nM"}, {"measurement": "concentration at 840 h", "setting": "dog #1", "value": 150, "unit": "nM"}, {"measurement": "concentration at 1008 h", "setting": "dog #1", "value": 80.2, "unit": "nM"}, {"measurement": "concentration at 1344 h", "setting": "dog #1", "value": 42.7, "unit": "nM"}, {"measurement": "concentration at 1680 h", "setting": "dog #1", "value": 69.5, "unit": "nM"}, {"measurement": "concentration at 1 h", "setting": "dog #2", "value": 1.2, "unit": "nM"}, {"measurement": "concentration at 3 h", "setting": "dog #2", "value": 2.6, "unit": "nM"}, {"measurement": "concentration at 8 h", "setting": "dog #2", "value": 15.5, "unit": "nM"}, {"measurement": "concentration at 24 h", "setting": "dog #2", "value": 27.8, "unit": "nM"}, {"measurement": "concentration at 48 h", "setting": "dog #2", "value": 60.6, "unit": "nM"}, {"measurement": "concentration at 72 h", "setting": "dog #2", "value": 37.8, "unit": "nM"}, {"measurement": "concentration at 96 h", "setting": "dog #2", "value": 28.8, "unit": "nM"}, {"measurement": "concentration at 168 h", "setting": "dog #2", "value": 43.1, "unit": "nM"}, {"measurement": "concentration at 336 h", "setting": "dog #2", "value": 64.7, "unit": "nM"}, {"measurement": "concentration at 504 h", "setting": "dog #2", "value": 114, "unit": "nM"}, {"measurement": "concentration at 672 h", "setting": "dog #2", "value": 81.5, "unit": "nM"}, {"measurement": "concentration at 840 h", "setting": "dog #2", "value": 110, "unit": "nM"}, {"measurement": "concentration at 1008 h", "setting": "dog #2", "value": 70.7, "unit": "nM"}, {"measurement": "concentration at 1344 h", "setting": "dog #2", "value": 41.2, "unit": "nM"}, {"measurement": "concentration at 1680 h", "setting": "dog #2", "value": 42.2, "unit": "nM"}, {"measurement": "concentration at 1 h", "setting": "dog #3", "value": 1.2, "unit": "nM"}, {"measurement": "concentration at 3 h", "setting": "dog #3", "value": 2.3, "unit": "nM"}, {"measurement": "concentration at 8 h", "setting": "dog #3", "value": 9.2, "unit": "nM"}, {"measurement": "concentration at 24 h", "setting": "dog #3", "value": 16.8, "unit": "nM"}, {"measurement": "concentration at 48 h", "setting": "dog #3", "value": 13.2, "unit": "nM"}, {"measurement": "concentration at 72 h", "setting": "dog #3", "value": 13.2, "unit": "nM"}, {"measurement": "concentration at 96 h", "setting": "dog #3", "value": 10.4, "unit": "nM"}, {"measurement": "concentration at 168 h", "setting": "dog #3", "value": 30.8, "unit": "nM"}, {"measurement": "concentration at 336 h", "setting": "dog #3", "value": 53, "unit": "nM"}, {"measurement": "concentration at 504 h", "setting": "dog #3", "value": 82.9, "unit": "nM"}, {"measurement": "concentration at 672 h", "setting": "dog #3", "value": 56.9, "unit": "nM"}, {"measurement": "concentration at 840 h", "setting": "dog #3", "value": 107, "unit": "nM"}, {"measurement": "concentration at 1008 h", "setting": "dog #3", "value": 54.1, "unit": "nM"}, {"measurement": "concentration at 1344 h", "setting": "dog #3", "value": 30.2, "unit": "nM"}, {"measurement": "concentration at 1680 h", "setting": "dog #3", "value": 28.5, "unit": "nM"}, {"measurement": "concentration at 3 h", "setting": "dog mean, n=3", "value": 2, "unit": "nM"}, {"measurement": "concentration at 8 h", "setting": "dog mean, n=3", "value": 11.8, "unit": "nM"}, {"measurement": "concentration at 24 h", "setting": "dog mean, n=3", "value": 21.5, "unit": "nM"}, {"measurement": "concentration at 48 h", "setting": "dog mean, n=3", "value": 42.8, "unit": "nM"}, {"measurement": "concentration at 72 h", "setting": "dog mean, n=3", "value": 37.9, "unit": "nM"}, {"measurement": "concentration at 96 h", "setting": "dog mean, n=3", "value": 32.7, "unit": "nM"}, {"measurement": "concentration at 168 h", "setting": "dog mean, n=3", "value": 48.6, "unit": "nM"}, {"measurement": "concentration at 336 h", "setting": "dog mean, n=3", "value": 84.2, "unit": "nM"}, {"measurement": "concentration at 504 h", "setting": "dog mean, n=3", "value": 123, "unit": "nM"}, {"measurement": "concentration at 672 h", "setting": "dog mean, n=3", "value": 77.2, "unit": "nM"}, {"measurement": "concentration at 840 h", "setting": "dog mean, n=3", "value": 122, "unit": "nM"}, {"measurement": "concentration at 1008 h", "setting": "dog mean, n=3", "value": 68.3, "unit": "nM"}, {"measurement": "concentration at 1344 h", "setting": "dog mean, n=3", "value": 38, "unit": "nM"}, {"measurement": "concentration at 1680 h", "setting": "dog mean, n=3", "value": 46.7, "unit": "nM"}, {"measurement": "concentration at 1 h", "setting": "dog mean", "value": 1.2, "unit": "nM"}, {"measurement": "AUC(0-t)", "setting": "n=3, read-out: AUC0-24h", "value": "0.304 ± 0.082", "unit": "µM·h"}, {"measurement": "AUC(0-t)", "setting": "n=3, read-out: AUC0-48h", "value": "1.08 ± 0.44", "unit": "µM·h"}, {"measurement": "AUC(0-t)", "setting": "n=3, read-out: AUC0-72h", "value": "2.04 ± 0.98", "unit": "µM·h"}, {"measurement": "AUC(0-t)", "setting": "n=3, read-out: AUC0-168h", "value": "5.82 ± 3.04", "unit": "µM·h"}, {"measurement": "AUC(0-t)", "setting": "n=3, read-out: AUC0-672h", "value": "51.2 ± 21", "unit": "µM·h"}, {"measurement": "AUC(0-t)", "setting": "n=3, read-out: AUC0-1344h", "value": "102 ± 30", "unit": "µM·h"}]}]}
